Source: US7973069B2 (PTC Therapeutics, Inc., priority 2004, dated 2011)
Several values for one entry are separate records, joined by “and”; a condition that tells them apart may be missing. Equal entries are not always repeated.

system: HCV replicon; format: cell-based

Row | SMILES | IC50
1 | CCOc1ccc2c(C#N)c(-c3ccc(NC(=O)OC(C)C)cc3)n(C3CCC3)c2c1 [Compound 973] | < 0.5 µM
2 | CCCN(c1ccc(-c2c(C#N)c3ccc(C(F)(F)F)cc3n2CC)cc1)S(=O)(=O)CC [Compound 1007] | < 0.5 µM
3 | CCOc1ccc2c(C#N)c(-c3ccc(NC(=O)OC(C)C)cc3)n(CC3CC3)c2c1 [Compound 1150] | < 0.5 µM
4 | CC(OC(=O)Nc1ccc(-c2c(C#N)c3ccc(OCC4CCCO4)cc3n2C2CCC2)cc1)C1CC1 (stereo not shown) [Compound 1281] | < 0.5 µM
5 | CCCS(=O)(=O)Nc1ccc(-c2c(C#N)c3ccc(OCCF)cc3n2C2CCC2)cc1 [Compound 1175] | < 0.5 µM
6 | CCCNC(=O)Nc1ccc(-c2c(C#N)c3ccc(OC(F)F)cc3n2C2CCC2)cc1 [Compound 1187] | 0.5 to 2 µM
7 | CCCOC(=O)Nc1ccc(-c2c(C#N)c3ccc(OC)cc3n2C2CCC2)cc1 [Compound 1074] | 0.5 to 2 µM
8 | CCCOc1ccc2c(C#N)c(-c3ccc(NC(=O)NC(C)CC)cc3)n(C(C)C)c2c1 (stereo not shown) [Compound 1324] | < 0.5 µM
9 | COc1ccc2c(C#N)c(-c3ccc(NS(=O)(=O)C(C)C)cc3)n(C3CCC3)c2c1 [Compound 1103] | 0.5 to 2 µM
10 | CC(C)OC(=O)Nc1ccc(-c2c(C#N)c3ccc(Oc4ncccn4)cc3n2C(C)C)cc1 [Compound 2392] | < 0.5 µM
11 | CCCCOC(=O)Nc1ccc(-c2c(C#N)c3ccc(OC(F)F)cc3n2CC)cc1 [Compound 1133] | 0.5 to 2 µM
12 | COc1ccc2c(C#N)c(-c3ccc(NC(=O)NC(C)C)cc3)n(C3CCC3)c2c1 [Compound 1082] | 0.5 to 2 µM
13 | CCCCOC(=O)Nc1cccc(-c2c(C#N)c3ccc(OCCCN4CCOCC4)cc3n2CC)c1 [Compound 1042] | 0.5 to 2 µM
14 | CC(C)NC(=O)Nc1ccc(-c2c(C#N)c3ccc(OCCN4CCOCC4)cc3n2C2CCC2)cc1 [Compound 1315] | 0.5 to 2 µM
15 | CCN(CC)CCCOc1ccc2c(C#N)c(-c3ccc(NC(=O)OC(C)C)cc3)n(C3CCC3)c2c1 [Compound 1260] | < 0.5 µM
16 | CCCOc1ccc2c(C#N)c(-c3ccc(NC(=O)OCC(C)(C)C)cc3)n(C(C)C)c2c1 [Compound 1207] | < 0.5 µM
17 | CCn1c(-c2ccc(NC(=O)N3CCOCC3)cc2)c(C#N)c2ccc(OC)cc21 [Compound 1087] | 0.5 to 2 µM
18 | Cn1c(-c2ccc(N3CCCS3(=O)=O)cc2)c(C#N)c2ccc(OC(F)(F)F)cc21 [Compound 902] | 0.5 to 2 µM
19 | CCn1c(-c2ccc(NC(=O)C3CC3)cc2)c(C#N)c2ccc(OCCn3cncn3)cc21 [Compound 1093] | 0.5 to 2 µM
20 | CC(C)OC(=O)Nc1ccc(-c2c(C#N)c3ccc(OCc4ccccn4)cc3n2C2CCC2)cc1 [Compound 1220] | < 0.5 µM
21 | CCN(C)CCOc1ccc2c(C#N)c(-c3ccc(NC(=O)NC(C)C)cc3)n(C3CCC3)c2c1 [Compound 1320] | < 0.5 µM
22 | CCCNC(=O)Nc1ccc(-c2c(C#N)c3ccc(OCC)cc3n2CC(C)C)cc1 [Compound 1061] | 0.5 to 2 µM
23 | CCCOc1ccc2c(C#N)c(-c3ccc(NC(=O)OCC4(C)CC4)cc3)n(C(C)C)c2c1 [Compound 1243] | < 0.5 µM
24 | CCn1c(-c2ccc(NC(=O)OC)c(F)c2)c(C#N)c2ccc(OC)cc21 [Compound 875] | 0.5 to 2 µM
25 | CCCOC(=O)Nc1ccc(-c2c(C#N)c3ccc(OC)cc3n2CC2CC2)cc1 [Compound 985] | 0.5 to 2 µM
26 | CCn1c(-c2ccc(NC(=O)OC(C)(C)C)cc2)c(C#N)c2ccc(Br)cc21 [Compound 1048] | 0.5 to 2 µM
27 | COc1ccc2c(C#N)c(-c3ccc(N4CCCS4(=O)=O)cc3)n(C3CCC3)c2c1 [Compound 1104] | 0.5 to 2 µM

Row | SMILES | IC50
28 | CCOc1ccc2c(C#N)c(-c3ccc(NS(=O)(=O)CCCCl)cc3)n(C3CCC3)c2c1 [Compound 935] | < 0.5 µM and 0.5 to 2 µM
29 | CCCNC(=O)Nc1ccc(-c2c(C#N)c3ccc(OCC)cc3n2C(C)C)cc1 [Compound 1099] | 0.5 to 2 µM
30 | COc1ccc2c(C#N)c(-c3ccc(NS(=O)(=O)C4CC4)cc3)n(CC3CC3)c2c1 [Compound 982] | > 2 µM
31 | CCOc1ccc2c(C#N)c(-c3ccc(NC(=O)NC(C)C)cc3)n(C3CCCC3)c2c1 [Compound 1221] | < 0.5 µM
32 | CCn1c(-c2ccc(NC(=O)C3CC3)cc2)c(C#N)c2ccc(OCCn3cccn3)cc21 [Compound 1184] | 0.5 to 2 µM
33 | CCCCn1c(-c2cccc(NC(=O)OCCC)c2)c(C#N)c2ccc(OCC)cc21 [Compound 1022] | < 0.5 µM and > 2 µM
34 | CCOc1ccc2c(C#N)c(-c3ccc(NC(=O)NC4CCCC4)cc3)n(CC3CC3)c2c1 [Compound 1173] | < 0.5 µM
35 | C=CCNC(=O)Nc1ccc(-c2c(C#N)c3cc(OC)ccc3n2CCC)cc1 [Compound 1001] | 0.5 to 2 µM
36 | CCOc1ccc2c(C#N)c(-c3ccc(NC(=O)OC(C)(C)C)cc3)n(C3CCC3)c2c1 [Compound 1072] | < 0.5 µM
37 | CCOc1ccc2c(C#N)c(-c3ccc(NC(=O)OC(C)C)cc3)n(CC3CCC3)c2c1 [Compound 1169] | < 0.5 µM
38 | CCOc1ccc2c(C#N)c(-c3ccc(NC(=O)OC4CCC4)cc3)n(C3CCC3)c2c1 [Compound 1167] | < 0.5 µM
39 | CC(C)OC(=O)Nc1ccc(-c2c(C#N)c3ccc(OCCN4CCOCC4)cc3n2C2CCC2)cc1 [Compound 1271] | < 0.5 µM
40 | CCCCn1c(-c2ccc(NC(=O)NCC)cc2)c(C#N)c2ccc(OCC)cc21 [Compound 1016] | 0.5 to 2 µM
41 | CCOc1ccc2c(C#N)c(-c3ccc(NC(=O)OC(C)C)cc3)n(C3CC3)c2c1 [Compound 1236] | < 0.5 µM
42 | CCOC(=O)Nc1ccc(-c2c(C#N)c3ccc(OCCCCl)cc3n2CC)cc1 [Compound 1031] | < 0.5 µM
43 | N#Cc1c(-c2ccc(NC(=O)NC3CCCC3)cc2)n(C2CCC2)c2cc(OC(F)F)ccc12 [Compound 1190] | 0.5 to 2 µM
44 | C=CCNC(=O)Nc1ccc(-c2c(C#N)c3ccc(OCCF)cc3n2CC)cc1 [Compound 958] | 0.5 to 2 µM and < 0.5 µM
45 | CCCNC(=O)Nc1ccc(-c2c(C#N)c3cc(OC)ccc3n2C2CCC2)cc1 [Compound 1162] | 0.5 to 2 µM
46 | CCn1c(-c2ccc(N3CCCS3(=O)=O)cc2)c(C#N)c2ccc(OC(F)F)cc21 [Compound 1026] | 0.5 to 2 µM and < 0.5 µM
47 | CCn1c(-c2ccc(NC(=O)C3CC3)cc2)c(C#N)c2ccc(OCCN(C)CCOC)cc21 [Compound 1091] | 0.5 to 2 µM
48 | CCOc1ccc2c(C#N)c(-c3ccc(NC(=O)OCC(C)(C)C)cc3)n(CC3CC3)c2c1 [Compound 1152] | < 0.5 µM
49 | CCCn1c(-c2ccc(NS(=O)(=O)C(C)C)cc2)c(C#N)c2cc(OC)ccc21 [Compound 997] | 0.5 to 2 µM
50 | CCCn1c(-c2cccc(N)c2)c(C#N)c2cc(OCc3ccccc3)ccc21 [Compound 866] | 0.5 to 2 µM
51 | CCOc1ccc2c(C#N)c(-c3ccc(N(CC)CC)cc3)n(C3CC3)c2c1 [Compound 1310] | 0.5 to 2 µM
52 | CCCOC(=O)Nc1ccc(-c2c(C#N)c3ccc(OCC)cc3n2CC)cc1 [Compound 949] | 0.5 to 2 µM
53 | CCCCNC(=O)Nc1cccc(-c2c(C#N)c3ccc(OCCCN4CCOCC4)cc3n2CC)c1 [Compound 1067] | 0.5 to 2 µM
54 | CCOc1ccc2c(C#N)c(-c3ccc(NC(=O)OC(C)CC)cc3)n(C3CCC3)c2c1 (stereo not shown) [Compound 1265] | < 0.5 µM

Row | SMILES | IC50
55 | CCNC(=O)Nc1ccc(-c2c(C#N)c3ccc(OCC)cc3n2C2CCCC2)cc1 [Compound 1143] | < 0.5 µM
56 | CCOc1ccc2c(C#N)c(-c3ccc(NC(=O)OCCF)cc3)n(CC(C)C)c2c1 [Compound 1059] | 0.5 to 2 µM
57 | CCOc1ccc2c(C#N)c(-c3ccc(NC(=O)OC(C)c4ccccc4)cc3)n(C3CCC3)c2c1 (stereo not shown) [Compound 1289] | < 0.5 µM
58 | CCCOC(=O)Nc1ccc(-c2c(C#N)c3ccc(OCCC)cc3n2C(C)C)cc1 [Compound 1203] | < 0.5 µM
59 | COc1ccc2c(c1)c(C#N)c(-c1ccc(NC(=O)OC(C)C)cc1)n2C1CCC1 [Compound 1232] | < 0.5 µM and 0.5 to 2 µM
60 | CC(C)OC(=O)Nc1ccc(-c2c(C#N)c3ccc(OCCCn4ccnc4)cc3n2C2CCC2)cc1 [Compound 1254] | < 0.5 µM
61 | COc1ccc2c(C#N)c(-c3ccc(NS(=O)(=O)C4CC4)cc3)n(CC3CCCC3)c2c1 [Compound 890] | 0.5 to 2 µM
62 | CCn1c(-c2ccc(NC(=O)C3CC3)cc2)c(C#N)c2ccc(OCCn3cnnc3)cc21 [Compound 1092] | 0.5 to 2 µM
63 | CCCn1c(-c2ccc(NC(=O)OCCF)cc2)c(C#N)c2ccc(OCC)cc21 [Compound 1064] | 0.5 to 2 µM
64 | CCCCn1c(-c2cccc(NC(=O)OCCC)c2)c(C#N)c2ccc(OCC)cc21 [Compound 1021] | < 0.5 µM
65 | CCOc1ccc2c(C#N)c(-c3ccc(NC(=O)NCCc4ccccc4)cc3)n(C(C)C)c2c1 [Compound 1102] | < 0.5 µM
66 | CCOc1ccc2c(C#N)c(-c3ccc(NC(=O)Cc4ccccc4)cc3)n(CC)c2c1 [Compound 900] | 0.5 to 2 µM
67 | CCCOC(=O)Nc1ccc(-c2c(C#N)c3ccc(OCCCN4CCOCC4)cc3n2CC)cc1 [Compound 1122] | < 0.5 µM
68 | COc1ccc2c(c1)c(C#N)c(-c1ccc(NC(=O)OCC(C)(C)C)cc1)n2C1CCC1 [Compound 1233] | < 0.5 µM
69 | CCCOC(=O)Nc1ccc(-c2c(C#N)c3ccc(OCCCCl)cc3n2CC)cc1 [Compound 1030] | < 0.5 µM
70 | N#Cc1c(-c2ccc(NC(=O)OCC3CCC3)cc2)n(C2CCC2)c2cc(OCCCCN3CCCC3)ccc12 [Compound 1257] | < 0.5 µM
71 | CCCNC(=O)Nc1ccc(-c2c(C#N)c3ccc(OC)cc3n2CC)cc1C [Compound 967] | 0.5 to 2 µM
72 | CCOc1ccc2c(C#N)c(-c3ccc(NC(=O)OC(C)C(C)C)cc3)n(C3CCC3)c2c1 (stereo not shown) [Compound 1290] | < 0.5 µM
73 | CCn1c(-c2ccc(NC(=O)OCCF)cc2)c(C#N)c2ccc(OCCCCl)cc21 [Compound 1033] | < 0.5 µM
74 | CCCNC(=O)Nc1ccc(-c2c(C#N)c3cc(OC)ccc3n2CC)cc1 [Compound 1010] | 0.5 to 2 µM
75 | CCNC(=O)Nc1ccc(-c2c(C#N)c3ccc(OCCCN4CCOCC4)cc3n2CC)cc1 [Compound 1124] | < 0.5 µM and 0.5 to 2 µM
76 | CC(OC(=O)Nc1ccc(-c2c(C#N)c3ccc(OCCn4ccnc4)cc3n2C2CCC2)cc1)C1CC1 (stereo not shown) [Compound 1328] | < 0.5 µM
77 | CCn1c(-c2ccc(N(C)S(=O)(=O)CC)cc2)c(C#N)c2ccc(C(F)(F)F)cc21 [Compound 1005] | 0.5 to 2 µM
78 | CC(C)OC(=O)Nc1ccc(-c2c(C#N)c3ccc(OCCN(C)C)cc3n2C2CCC2)cc1 [Compound 1269] | < 0.5 µM
79 | CCn1c(-c2ccc(NC(=O)N3CCCCC3)cc2)c(C#N)c2ccc(OC)cc21 [Compound 1088] | 0.5 to 2 µM
